According to US10450322B2, “Low molecular weight derivatives of carboxamide halogenated porphyrins, namely chlorins and bacteriochlorins, and their applications thereof” (LUZITIN, S.A., priority 2015, dated 2019):

Tests used:
[1] = Singlet oxygen quantum yield (phosphorescence at 1270 nm); assay type: physicochemical; settings: in ethanol
Text: The experiments were run at room temperature using the Nd-YAG laser Spectra-Physics Quanta-Ray GRC-130. The solutions were excited at 355 nm and the phosphorescence of singlet oxygen collected at 1270 nm in a Hamamatsu R5509-42 photomultiplier, cooled to 193 K in a liquid nitrogen chamber, after selection of the wavelength with a monochromator with 600 lines grading. Phenalenone was used as a reference of singlet oxygen generator. A Newport filter model 10LWF-1000-B was used in the emission to avoid scattering and fluorescence.
This is indicative of negligible aggregation between the molecules, which exist mostly as monomers at these concentrations in the solvents studied. Table 1 presents the infrared molar absorption coefficient (εmax) and wavelength maximum in ethanol of a typical carboxamide halogenated bacteriochlorin derivative of Formula (I). The same table also presents triplet lifetimes (τT) in air and N2 saturated solutions, fluorescence lifetime (τS), the quantum yields of fluorescence (ΦF), triplet state formation (ΦT), and singlet oxygen generation (ΦΔ) in ethanol, and photodegradation quantum yield (Φpd) in methanol:PBS (3:2). Triplet decays were clearly mono-exponential and in air-saturated ethanol the triplet lifetimes were in the range of 200 to 300 nanoseconds. […]

CT26 subcutaneous tumors = experiment: In vivo antitumor PDT of CT26 subcutaneous tumors in BALB/c mice; settings: 15 min drug-to-light interval
[2] = n-Octanol:PBS partition ratio (shake-flask); assay type: physicochemical
Text: a modification of the shake-flask method was employed to determine the equilibrium concentrations of the photosensitizer in n-octanol and in phosphate-buffered saline (PBS) mixed in equal volumes, using the typical fluorescence band of the same photosensitizer and calibration curves.
This example describes the evaluation of in vitro phototoxicity of a carboxamide bacteriochlorin with formula IX after light irradiation, and their potential for PDT application in the treatment of acne vulgaris. The phototoxicity was measured according to the description in the Materials and Methods section. The n-octanol:PBS partition ratio of IX is POW=2.9±0.5. An adequate formulation for this carboxamide bacteriochlorin is PEG400:DMSO (55:45). The phototoxicity of the test compound is proportional to the inhibition of P. acnes viability relative to the non-treated control, and is represented in FIG. 5 in the form of CFU reduction as a function of photosensitizer concentration for the light doses of 4 and 10 J/cm^2.

[3] = test system: CT26 (mouse colon adenocarcinoma) cell line; experiment: In vitro phototoxicity / dark toxicity towards CT26 cells; assay type: cell-based
Method: Phototoxicity towards cancer cell lines was evaluated in vitro using A549 (human lung adenocarcinoma) and CT26 (mouse colon adenocarcinoma) cell lines. The cells were cultured in Dulbecco's modified Eagles's medium (DMEM) supplemented with 10% heat-inactivated fetal bovine serum and 1% penicillin. Cells were plated at a density of 20,000/well and 15,000/well respectively, in flat-bottom 96-well plates. On the following day, diluted solutions of the test compound were prepared (1 mM stock) and added to the cells for 30-min incubation. […] The wells were washed two times with PBS and irradiated after 30-min of incubation using the LED light described above. Light dose was 1 J/cm^2. The medium was replaced with fresh one after irradiation and the plates were incubated for 24 h, at which time the cellular viability was assessed by resazurin method using a microplate spectrophotometer (Synergy HT Biotek).
This example describes the evaluation of in vitro phototoxicity of a carboxamide bacteriochlorin with formula IX after light irradiation, and their potential for PDT of cancer. The formulation employed was the same as that of Example 4. […] The phototoxicity was measured according to the description in the Materials and Methods section. The phototoxicity of the test compound was assessed in terms of the percentage of survival of the cells for various concentrations of the test compound incubated for 30 min, followed by washings with PBS, addition of the culture medium and illumination with a light dose of 1 J/cm^2.

[4] = Skin permeation: amount of photosensitizer in pig skin after topical formulation; assay type: in vitro ADME; settings: for Concentration average: 6 experiments
Method: Skin permeation was evaluated using a topical formulation containing benzyl alcohol (23%), Kolliphor EL (17%), Transcutol (50%) and water (10%). The photosensitizer added to this formulation corresponded to 1.85% of the mass before its addition, and the gelling agent (Aerosil 200) added corresponded to 5% of the mass before its addition. The photosensitizer was first dissolved in Transcutol and exposed to 3 min of vortex and 5 min of ultrasounds. A mixture of benzyl alcohol and Kolliphor EL was then added. Immediately after, it was mixed in an IKA MIXER at 200 rpm for 5 min and water was added drop-by-drop for 10 min. Finally, the gelling agent, Aerosil 200, was mixed in and the microemulsion gel was obtained. Skin permeation studies were performed in pig skin using samples collected from 5 months old pigs. The hair was removed as well as the underlying fatty layer, before the permeation studies.
This example describes the permeation of carboxamide bacteriochlorin with formula IX in pig skin. The topical formulation and the animal model were described in the Materials and Methods section. The permeation was assessed both in terms of the amount of photosensitizer in the skin after designated times of contact between the topical formulation and the skin (incubation time) and in terms of the depth of the permeation in the skin.
The assessment of the amount of carboxamide bacteriochlorin with formula IX in the skin after various incubation times involved the following steps: (i) application of 0.30 ml of formulation in 1 cm^2 areas of minipig skin to make 6 independent measurements for the incubation times of 30, 60 and 120 minutes; (ii) cleaning of the surface of the skin at the end of the incubation times; (iii) cutting the skin in small pieces and maceration in 2 ml of dichloromethane with the aid of dispersing machine; (iv) extraction with 10 ml of dichloromethane in a falcon tube for six hours; (v) dilution by a factor of 5 with ethanol. The volume of 200 μl of the test solution was added in triplicate to 96 well plate and fluorescence intensity was detected using a Synergy HT microplate reader form Biotek (California, USA), with an excitation filter of 508/20 nm and emission filter of 760/35 nm, against a calibration curve. The signal of a blank obtained with the same cleaning method was subtracted from the signal of the sample and the concentration of the photosensitizer in each sample was obtained with the calibration curve. A summary of the results can be seen in Table 2.

SMILES: CNC(=O)c1c2nc(c(-c3c(F)cccc3F)c3ccc(cc4nc(c(-c5c(F)cccc5F)c5ccc1[nH]5)CC4)[nH]3)CC2 [formula IX, 5-methylcarboxamide-10,20-bis-(2,6-difluorophenyl)bacteriochlorin]
- ΦΔ singlet oxygen quantum yield [1]: 0.38
- cure (CT26 subcutaneous tumors; 0.15 mg/kg i.v., 40 J/cm^2): 100%
- tolerability of PDT (CT26 subcutaneous tumors; 0.15 mg/kg i.v., 40 J/cm^2): very well tolerated
- tumor response (CT26 subcutaneous tumors; 0.15 mg/kg i.v., 40 J/cm^2): complete regression
- time post-PDT by which animals died of acute response to the treatment (CT26 subcutaneous tumors; 0.3 mg/kg i.v., 40 J/cm^2 at 749 nm): less than 72 h
- Log POW [2]: 2.9
- n-octanol:PBS partition ratio POW [2]: 2.9±0.5
- IC50 ([3]; 30 min incubation, irradiated with 1 J/cm^2): 5.8 nM
- photosensitizer concentration at which nearly all cells are killed ([3]; CT26, 30 min incubation, 1 J/cm^2 (FIG. 6)): 50 nM
- concentration with no signs of toxicity in the dark ([3]; CT26, incubation in the dark for 30 min): up to 40 μM
- flux of the photosensitizer to the skin Jmax ([4]; attained in 1.5 hours, topical formulation): 4×10^−8 mol/(cm^2 h)
- Mass in the skin ([4]; incubation time 30 min): 5.41 ± 1.33 μg/cm^2
- Concentration average ([4]; incubation time 30 min): 0.909 µM
- Mass in the skin ([4]; incubation time 60 min): 19.9 ± 5.12 μg/cm^2
- Concentration average ([4]; incubation time 60 min): 3.34 µM
- Mass in the skin ([4]; incubation time 120 min): 37.2 ± 7.45 μg/cm^2
- Concentration average ([4]; incubation time 120 min): 6.26 µM
